Reference: patent US12448388B2, “PRMT5 inhibitors and uses thereof” (Gilead Sciences, Inc., priority 2023, dated 2025)

test system: HCT116 MTAP-deleted cell lines; assay: Cell viability assay (CellTiter-Glo, 7 days), HCT116 MTAP-deleted; format: cell-based; conditions: Homo sapiens, HCT-116; cell viability, HCT116 MTAP-deleted; class symbols; read-out: CC50
Method in brief: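 Dose-response, PRMT5 inhibitors from DMSO serial dilution, pre-spotted; cells seeded onto compound plates. 7 d, 37 °C/5% CO2/90% RH. Readout: CTG luminescence → CC50.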

SMILES	CC50 [nM]
Nc1nc2cc(F)c(C(=O)N3CC[C@@H]4Oc5cc(C(F)(F)F)ccc5[C@@H]43)cc2n2cncc12 [Ff-66, (4-amino-7-fluoroimidazo[1,5-a]quinoxalin-8-yl)((3aS,8bS)-6-(trifluoromethyl)-2,3,3a,8b-tetrahydro-1H-benzofuro[3,2-b]pyrrol-1-yl)methanone]	100 to 1000
Cc1ncn2c1c(N)nc1cc(F)c(C(=O)N(C)C3CCc4nc(C(F)(F)F)ccc43)cc12 (centres unmarked) [Ff-68, 4-amino-7-fluoro-N,3-dimethyl-N-(2-(trifluoromethyl)-6,7-dihydro-5H-cyclopenta[b]pyridin-5-yl)imidazo[1,5-a]quinoxaline-8-carboxamide]	< 100
C[C@H](C(=O)N(C)C)N(Cc1ccc(C(F)(F)F)cc1F)C(=O)c1cc2c(cc1F)nc(N)c1cncn12 [Ff-69, 4-amino-N-[(1R)-2-(dimethylamino)-1-methyl-2-oxo-ethyl]-7-fluoro-N-[[2-fluoro-4-(trifluoromethyl)phenyl]methyl]imidazo[1,5-a]quinoxaline-8-carboxamide]	100 to 1000
CN1CC[C@@H](N(Cc2ccc(C(F)(F)F)cc2F)C(=O)c2cc3c(cc2F)nc(N)c2cncn23)C1=O [Ff-70, 4-amino-7-fluoro-N-[[2-fluoro-4-(trifluoromethyl)phenyl]methyl]-N-[(3R)-1-methyl-2-oxo-pyrrolidin-3-yl]imidazo[1,5-a]quinoxaline-8-carboxamide]	< 100
CCN(Cc1ccc(F)cc1Cl)C(=O)c1ccc2nc(N)c3cncn3c2c1 [Ff-71, 4-amino-N-(2-chloro-4-fluorobenzyl)-N-ethylimidazo[1,5-a]quinoxaline-8-carboxamide]	100 to 1000
CC(C)N(Cc1ccc(F)cc1Cl)C(=O)c1ccc2nc(N)c3cncn3c2c1 [Ff-72, 4-amino-N-(2-chloro-4-fluorobenzyl)-N-isopropylimidazo[1,5-a]quinoxaline-8-carboxamide]	100 to 1000
Nc1nc2cc(F)c(C(=O)N(Cc3ccc(F)cc3Cl)C3CCC3)cc2n2cncc12 [Ff-73, 4-amino-N-(2-chloro-4-fluorobenzyl)-N-cyclobutyl-7-fluoroimidazo[1,5-a]quinoxaline-8-carboxamide]	100 to 1000
Nc1nc2ccc(C(=O)N3CCOC[C@@H]3c3ccc(C(F)(F)F)cc3)cc2n2cncc12 [Ff-84, (S)-(4-aminoimidazo[1,5-a]quinoxalin-8-yl)(3-(4-(trifluoromethyl)phenyl)morpholino)methanone]	100 to 1000
Nc1nc2cnc(C(=O)N3CCOC[C@@H]3c3ccc(C(F)(F)F)cc3)cc2n2cncc12 [Ff-86, (S)-(4-aminoimidazo[1,5-a]pyrido[3,4-e]pyrazin-8-yl)(3-(4-(trifluoromethyl)phenyl)morpholino)methanone]	< 100
Nc1nc2cnc(C(=O)N3CCCC[C@@H]3c3ccc(C(F)(F)F)cc3)cc2n2cncc12 [Ff-87, (R)-(4-aminoimidazo[1,5-a]pyrido[3,4-e]pyrazin-8-yl)(2-(4-(trifluoromethyl)phenyl)piperidin-1-yl)methanone]	< 100
C[C@H]1CN(C(=O)c2ccc3nc(N)c4cncn4c3c2)[C@H]2c3ccc(C(F)(F)F)cc3C[C@H]2O1 [Ff-89, (4-aminoimidazo[1,5-a]quinoxalin-8-yl)((2S,4aS,9aR)-2-methyl-7-(trifluoromethyl)-2,3,9,9a-tetrahydroindeno[2,1-b][1,4]oxazin-4(4aH)-yl)methanone]	< 100
Cc1ncc2c(N)nc3cc(F)c(C(=O)N4CCOC[C@@H]4c4ccc(C(F)(F)F)cc4)cc3n12 [Ff-92, (S)-(4-amino-7-fluoro-1-methylimidazo[1,5-a]quinoxalin-8-yl)(3-(4-(trifluoromethyl)phenyl)morpholino)methanone]	< 100
C[C@H]1CN(C(=O)c2cc3c(cc2F)nc(N)c2cncn23)[C@H]2c3ccc(Br)cc3C[C@H]2O1 [Ff-93, (4-amino-7-fluoroimidazo[1,5-a]quinoxalin-8-yl)((2S,4aS,9aR)-7-bromo-2-methyl-2,3,9,9a-tetrahydroindeno[2,1-b][1,4]oxazin-4(4aH)-yl)methanone]	< 100
CN(C(=O)c1cc2c(cc1F)nc(N)c1cncn12)[C@@H]1COc2cc(Br)ccc21 [Ff-94, (S)-4-amino-N-(6-bromo-2,3-dihydrobenzofuran-3-yl)-7-fluoro-N-methylimidazo[1,5-a]quinoxaline-8-carboxamide]	< 100
CN(C(=O)c1cc2c(cc1F)nc(N)c1cncn12)[C@@H]1COc2cc(-c3cnn(C(F)(F)F)c3)ccc21 [Ff-95, (S)-4-amino-7-fluoro-N-methyl-N-(6-(1-(trifluoromethyl)-1H-pyrazol-4-yl)-2,3-dihydrobenzofuran-3-yl)imidazo[1,5-a]quinoxaline-8-carboxamide]	< 100
C[C@H]1CN(C(=O)c2cc3c(cc2F)nc(N)c2cncn23)[C@H]2c3ccc(-c4cnn(C(F)F)c4)cc3C[C@H]2O1 [Ff-96, (4-amino-7-fluoroimidazo[1,5-a]quinoxalin-8-yl)((2S,4aS,9aR)-7-(1-(difluoromethyl)-1H-pyrazol-4-yl)-2-methyl-2,3,9,9a-tetrahydroindeno[2,1-b][1,4]oxazin-4(4aH)-yl)methanone]	< 100
C[C@H]1CN(C(=O)c2cc3c(cc2F)nc(N)c2cncn23)[C@H]2c3ccc(-c4cnn(C(F)(F)F)c4)cc3C[C@H]2O1 [Ff-97, (4-amino-7-fluoroimidazo[1,5-a]quinoxalin-8-yl)((2S,4aS,9aR)-2-methyl-7-(1-(trifluoromethyl)-1H-pyrazol-4-yl)-2,3,9,9a-tetrahydroindeno[2,1-b][1,4]oxazin-4(4aH)-yl)methanone]	100 to 1000
C[C@@H]1CN(C(=O)c2cc3c(cn2)nc(N)c2cncn23)[C@H]2c3ccc(C(F)(F)F)cc3C[C@H]2O1 [Ff-98, (4-aminoimidazo[1,5-a]pyrido[3,4-e]pyrazin-8-yl)((2R,4aS,9aR)-2-methyl-7-(trifluoromethyl)-2,3,9,9a-tetrahydroindeno[2,1-b][1,4]oxazin-4(4aH)-yl)methanone]	< 100
Nc1nc2ccc(C(=O)N3CCOC[C@@H]3c3ccc(C(F)(F)F)cc3)cc2n2cnc(F)c12 [Ff-103, (S)-(4-amino-3-fluoroimidazo[1,5-a]quinoxalin-8-yl)(3-(4-(trifluoromethyl)phenyl)morpholino)methanone]	100 to 1000
Nc1nc2cc(F)c(C(=O)N3CCC[C@@H]4Oc5cc(C(F)(F)F)c(F)cc5[C@@H]43)cc2n2cncc12 [Ff-105, (4-amino-7-fluoroimidazo[1,5-a]quinoxalin-8-yl)((4aS,9bS)-8-fluoro-7-(trifluoromethyl)-3,4,4a,9b-tetrahydrobenzofuro[3,2-b]pyridin-1(2H)-yl)methanone]	< 100
Cc1ncc2c(N)nc3cnc(C(=O)N4CCC[C@@H]5Oc6c(ccc(C(F)(F)F)c6F)[C@@H]54)cc3n12 [Ff-107, (4-amino-1-methylimidazo[1,5-a]pyrido[3,4-e]pyrazin-8-yl)((4aS,9bS)-6-fluoro-7-(trifluoromethyl)-3,4,4a,9b-tetrahydrobenzofuro[3,2-b]pyridin-1(2H)-yl)methanone]	< 100
Cc1ncc2c(N)nc3cnc(C(=O)N4CCC[C@@H]5Oc6cc(C(F)(F)F)c(F)cc6[C@@H]54)cc3n12 [Ff-108, (4-amino-1-methylimidazo[1,5-a]pyrido[3,4-e]pyrazin-8-yl)((4aS,9bS)-8-fluoro-7-(trifluoromethyl)-3,4,4a,9b-tetrahydrobenzofuro[3,2-b]pyridin-1(2H)-yl)methanone]	< 100
CC1Oc2cc(C(F)(F)F)ccc2C1N(C)C(=O)c1cc2c(cc1F)nc(N)c1cncn12 (centres unmarked) [Ff-114, 4-amino-7-fluoro-N-methyl-N-(2-methyl-6-(trifluoromethyl)-2,3-dihydrobenzofuran-3-yl)imidazo[1,5-a]quinoxaline-8-carboxamide]	< 100
Cc1ncn2c1c(N)nc1cnc(C(=O)N3CCC[C@@H]4Oc5cc(C(F)(F)F)c(F)cc5[C@@H]43)cc12 [Ff-116, (4-amino-3-methylimidazo[1,5-a]pyrido[3,4-e]pyrazin-8-yl)((4aS,9bS)-8-fluoro-7-(trifluoromethyl)-3,4,4a,9b-tetrahydrobenzofuro[3,2-b]pyridin-1(2H)-yl)methanone]	< 100
Nc1nc2ccc(C(=O)N3CCC[C@@H]4Oc5c(ccc(C(F)(F)F)c5F)[C@@H]43)cc2n2cncc12 [Ff-118, (4-aminoimidazo[1,5-a]quinoxalin-8-yl)((4aS,9bS)-6-fluoro-7-(trifluoromethyl)-3,4,4a,9b-tetrahydrobenzofuro[3,2-b]pyridin-1(2H)-yl)methanone]	< 100
Cc1ncn2c1c(N)nc1cnc(C(=O)N3CCC[C@@H]4Oc5c(ccc(C(F)(F)F)c5F)[C@@H]43)cc12 [Ff-119, (4-amino-3-methylimidazo[1,5-a]pyrido[3,4-e]pyrazin-8-yl)((4aS,9bS)-6-fluoro-7-(trifluoromethyl)-3,4,4a,9b-tetrahydrobenzofuro[3,2-b]pyridin-1(2H)-yl)methanone]	< 100
Nc1nc2cc(F)c(C(=O)N3C[C@@H](F)C[C@@H]4Oc5cc(C(F)(F)F)ccc5[C@@H]43)cc2n2cncc12 [Ff-120, (4-amino-7-fluoroimidazo[1,5-a]quinoxalin-8-yl)((3S,4aS,9bS)-3-fluoro-7-(trifluoromethyl)-3,4,4a,9b-tetrahydrobenzofuro[3,2-b]pyridin-1(2H)-yl)methanone]	< 100
Cc1ncc2c(N)nc3ccc(C(=O)N4CCC[C@@H]5Oc6c(ccc(C(F)(F)F)c6F)[C@@H]54)cc3n12 [Ff-122, (4-amino-1-methylimidazo[1,5-a]quinoxalin-8-yl)((4aS,9bS)-6-fluoro-7-(trifluoromethyl)-3,4,4a,9b-tetrahydrobenzofuro[3,2-b]pyridin-1(2H)-yl)methanone]	< 100
CN(Cc1ccc2c(c1)OC(F)(F)O2)C(=O)c1ccc2nc(N)c3cncn3c2c1 [Ff-123, 4-amino-N-((2,2-difluorobenzo[d][1,3]dioxol-5-yl)methyl)-N-methylimidazo[1,5-a]quinoxaline-8-carboxamide]	100 to 1000
